Experimental data as given in patent US9464064B2, “HCV helicase inhibitors and methods of use thereof” (University of Kansas, priority 2011, dated 2016).
Where two headings read alike, the source gives them in different places.

Legend:
Huh-7.5 cells = assay: Cell viability assay ([…]-GLO); type: cell-based, human; conditions: for Cell viability (% viable): 10 μM compound, triplicate, average ± SD
Description: To assess compound toxicity toward Huh-7.5 cells, cells were plated and treated as above and cell viability was assessed using the […]-GLO luminescent cell viability kit (PROMEGA) following the manufacturer's instructions. Briefly, at the end of a 72 hour incubation period, the medium was aspirated and the cells were washed with 1×PBS, then an equal volume of growth medium and […]-GLO reagent was added and the lysis was initiated by mixing on an orbital shaker. The plate was incubated at 23° C. for 30 minutes and the luciferase activity was measured for 1 second using the FLUOSTAR Omega microplate reader (BMG Labtech).

NS3h_2a(JFH1) = biological target: T1, NS3h_2a(JFH1) (Hepatitis C virus genotype 2a, UniProt Q99IB8); assay: MBHA, DNA substrate, genotype 2a helicase; type: biochemical, hepatitis C virus genotype 2a(JFH1)
T1 construct: truncated C-terminally His-tagged NS3 proteins lacking the N-terminal protease, called NS3h; His-tag (C); made in house
Description: All oligonucleotides were purchased from Integrated DNA Technologies (IDT, Coralville, Iowa). Primuline derivatives were synthesized and purified as described herein. Three different NS3 proteins were used in this study. Two were truncated C-terminally His-tagged NS3 proteins lacking the N-terminal protease, called NS3h, the third was a full-length NS3 with the portion of NS4A needed for protease activation fused to its N-terminus, called scNS4A-NS3 (Howe, et al. (1999) Protein Sci. 8:1332-41), and the fourth was a 23 kDa scNS4A-NS3 protease fragment lacking the helicase domains, called scNS4A-NS3p (Protein One, Rockville, Md.). NS3h was expressed from two different HCV strains. NS3h_1b(con1) was from the con1 strain of genotype 1b (GENBANK accession AB114136), and NS3h_2a(JFH1) was from the JFH1 strain of HCV genotype 2a (GENBANK accession AJ238799). […] His-tagged recombinant NS3h_1b(con1), NS3h_2a(JFH1), and scNS4A-NS3 (also from genotype 1b(con1)) were expressed, and purified as previously described (Frick, et al. (2010) supra; Lam, et al. (2003) J. Virol. 77:3950-3961). The scNS4A-NS3p (genotype 1b) was from Protein One. A plasmid expressing NS3h from dengue virus strain 2 (NS3h_DV2)(GENBANK accession 2BMF) is known in the art (Xu, et al. (2005) J. Virol. 79:10278-10288), and used to express and purify NS3h_DV2 (Belon, et al. (2010) supra)
Compounds that specifically target less conserved regions of a HCV protein are often not potent inhibitors of the same protein derived from other genotypes, and they might be susceptible to rapid evolution of related viruses. As described herein, primuline derivatives can inhibit HCV helicase isolated from the genotype 1b(con1) strain. Therefore to further analyze specificity, the subset of primuline analogs was tested on the helicase isolated from the genotype 2a(JFH1) strain. The two recombinant proteins differ at 83 of their 480 amino acids. The JHF1 strain is also of interest because it serves as the backbone for HCV strains capable of replicating in cell culture (Wakita, et al. (2005) Nat. Med. 11:791-796). The molecular beacon-based helicase assay (MBHA) (Belon & Frick (2008) supra) was used to measure the ability of each compound to inhibit DNA unwinding catalyzed by NS3h isolated from genotype 2a(JFH1) (NS3h_2a(JFH1)). […] Selected compounds were also tested for the ability to inhibit helicase reactions catalyzed by full-length NS3 and a single chain NS4A-NS3 protein (scNS4A-NS3) described below and used for protease assays.

[1] = biological target: T2, E. coli SSB-Cy5-dT15 complex (Escherichia coli, UniProt P0AGE0); assay: Escherichia coli SSB Cy5-dT15 binding assay (fluorescence polarization); conditions: for inhibition at 100 µM: read-out: SSB % Displaced @ 100 μM
T2 construct: purchased Promega
Description: The Escherichia coli SSB assay was performed in a total volume of 20.2 μl in 384-well, flat-bottom, low volume, black microplates (Greiner Bio-One). First, 20 μl of a assay solution (5 nM Cy5-[…]-3′ (Cy5-dT15, SEQ ID NO:5), 20 nM E. coli SSB (Promega), 25 mM MOPS, pH 7.5, 1.25 mM MgCl2, 0.0025 mg/ml BSA, 0.005% (v/v) TWEEN 20 and 0.025 mM DTT) was dispensed in each well, then 0.2 μl of dimethylsulfoxide (DMSO) or compound dissolved in DMSO was added by pin transfer, such that the final concentration of DMSO was 1% (v/v) in each assay.
For IC50 determination, assays were performed with 60 μl total volume in black flat bottomed 384-well microplates (Corning). First, 3.0 μl of DMSO or compound dissolved in DMSO was added, such that the final concentration of DMSO was 5% (v/v) in each assay. Then 57 μl of a assay solution (5 nM Cy5-dT15, 20 nM SSB, 25 mM MOPS, pH 7.5, 1.25 mM MgCl2, 0.0025 mg/ml BSA, 0.005% (v/v) TWEEN 20 and 0.025 mM DTT) was dispensed in each well. Polarization was monitored with a TECAN Infinite M1000 PRO multi-mode microplate reader by exciting at 635 nm (5 nm bandwidth) and measuring total fluorescence intensity, parallel and perpendicular polarized light at 667 nm (20 nm bandwidth).

[2] = genotype 2a (JFH1), read-out: Target Potency MBHA (IC50 avg., μM) 2a (JFH1) (converted)
[3] = disruption of Cy5-dT15-SSB complex, read-out: Cy5-dT15-SSB Binding IC50
[4] = DNA-based MBHA, genotype 2a(JFH1), read-out: DNA Helicase NS3h_2a IC50 (μM) ± SD
[5] = Target Potency MBHA (IC50 avg., μM) 2a (JFH1), genotype 2a (JFH1)

T1 sequence (Q99IB8 1196-1661): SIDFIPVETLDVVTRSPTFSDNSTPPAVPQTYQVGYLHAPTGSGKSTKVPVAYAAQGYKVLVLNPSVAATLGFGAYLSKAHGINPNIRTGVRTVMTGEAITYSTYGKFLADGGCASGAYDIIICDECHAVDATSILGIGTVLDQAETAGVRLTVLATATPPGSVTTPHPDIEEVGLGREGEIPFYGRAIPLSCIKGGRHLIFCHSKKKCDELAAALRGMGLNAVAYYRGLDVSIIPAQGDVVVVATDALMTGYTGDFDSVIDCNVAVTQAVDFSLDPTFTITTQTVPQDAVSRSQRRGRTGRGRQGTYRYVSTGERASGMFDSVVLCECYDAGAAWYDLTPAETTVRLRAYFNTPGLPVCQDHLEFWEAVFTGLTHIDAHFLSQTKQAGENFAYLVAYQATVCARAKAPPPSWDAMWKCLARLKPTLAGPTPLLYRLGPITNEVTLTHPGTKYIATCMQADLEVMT
T2 sequence (P0AGE0 2-178, one chain of several): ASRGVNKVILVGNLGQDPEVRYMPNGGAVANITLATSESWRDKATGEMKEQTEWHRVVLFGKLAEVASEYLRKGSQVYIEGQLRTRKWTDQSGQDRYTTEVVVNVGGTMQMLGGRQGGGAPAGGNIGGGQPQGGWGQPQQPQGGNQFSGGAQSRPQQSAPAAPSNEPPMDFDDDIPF

Row | Compound | Cell Viability (% @ 10 μM) (Huh-7.5 cells) | IC50 (NS3h_2a(JFH1); [2]) | inhibition at 100 µM [1] | EC50 ([1]; read-out: SSB EC50) | Cell viability (% viable) (Huh-7.5 cells) | IC50 [1, 3] | IC50 (NS3h_2a(JFH1); [4]) | EC50 [1] | IC50 [1] | IC50 (NS3h_2a(JFH1); [5])
1 | Cc1ccc2nc(-c3ccc4nc(-c5ccc(NC(=O)c6ccc7ncoc7c6)cc5)sc4c3)sc2c1S(=O)(=O)O | 114 ± 13% | 6.4 µM |  |  |  |  |  |  |  | 
2 | Cc1ccc2nc(-c3ccc4nc(-c5ccc(NS(=O)(=O)c6ccc(C(F)(F)F)cc6)cc5)sc4c3)sc2c1S(=O)(=O)O | 101 ± 6% | 35 µM |  |  |  |  |  |  |  | 
3 | Cc1ccc2nc(-c3ccc(NC(=O)c4ccc(C(F)(F)F)cc4)cc3)sc2c1S(=O)(=O)O | 102 ± 9% | > 100 µM |  |  |  |  |  |  |  | 
4 | Cc1ccc2nc(-c3ccc(NC(=O)c4ccc(N)cc4)cc3)sc2c1S(=O)(=O)O | 103 ± 6% | 64 µM |  |  |  |  |  |  |  | 
5 | Cc1ccc2nc(-c3ccc(NC(=O)c4ccc(NS(=O)(=O)c5ccccc5)cc4)cc3)sc2c1S(=O)(=O)O | 119 ± 11% | > 100 µM | 61% | > 100 µM |  |  |  |  |  | 
6 | Cc1ccc2nc(-c3ccc(NC(=S)Nc4ccccc4Br)cc3)sc2c1 | 39 ± 10% | > 100 µM |  |  |  |  |  |  |  | 
7 | Cc1ccc2nc(-c3ccc4nc(NC(=O)c5ccc6ncoc6c5)sc4c3)sc2c1 | 28 ± 5% | 75 ± 32.6 µM |  |  |  |  |  |  |  | 
8 | Cc1ccc2nc(-c3ccc4nc(-c5ccc(NC(=O)c6ccccc6)cc5)sc4c3)sc2c1S(=O)(=O)O [Compound 5, 2′-(4-benzamidophenyl)-6-methyl-[2,6′-bibenzo[d]thiazole]-7-sulfonic acid] | 88 ± 2% | 4.6 ± 1.4 µM | 91% | 4 ± 1 µM | 88 ± 2% | 4 ± 1 µM |  |  |  | 
9 | Cc1ccc2nc(-c3ccc4nc(-c5ccc(NC(=O)c6ccc(N)cc6)cc5)sc4c3)sc2c1S(=O)(=O)O [Compound 6, 2′-(4-(4-aminobenzamido)phenyl)-6-methyl-[2,6′-bibenzo[d]thiazole]-7-sulfonic acid] | 93 ± 4% | 5.3 ± 2.5 µM | 99% | 3 ± 1 µM | 93 ± 4% | 2 ± 1 µM | 5 ± 2.5 µM |  |  | 
10 | Cc1ccc2nc(-c3ccc4nc(-c5ccc(NC(=O)c6ccc(F)cc6)cc5)sc4c3)sc2c1S(=O)(=O)O.N [Compound 7, 2′-(4-(4-fluorobenzamido)phenyl)-6-methyl-[2, bibenzo[d]thiazole]-7-sulfonic acid] | 94 ± 2% | 3 ± 0.8 µM | 88% | 14 ± 4 µM | 94 ± 2% | 14 ± 4 µM | 3 ± 0.8 µM |  |  | 
11 | COc1ccc(C(=O)Nc2ccc(-c3nc4ccc(-c5nc6ccc(C)c(S(=O)(=O)O)c6s5)cc4s3)cc2)cc1 [Compound 8, 2′-(4-(4-methoxybenzamido)phenyl)-6-methyl-[2,6′-bibenzo[d]thiazole]-7-sulfonic acid] | 85 ± 5% |  | 92% |  | 85 ± 5% |  |  | 2 ± 1 µM | 2 ± 1 µM | 5.4 ± 1.4 µM
12 | COC(=O)c1ccc(C(=O)Nc2ccc(-c3nc4ccc(-c5nc6ccc(C)c(S(=O)(=O)O)c6s5)cc4s3)cc2)cc1 [Compound 9, 2′-(4-(4-(methoxycarbonyl)benzamido)phenyl)-6-methyl-[2,6′-bibenzo[d]thiazole]-7-sulfonic acid] | 101 ± 8% | 2.4 ± 0.6 µM | 91% | 2 ± 0.5 µM | 101 ± 8% | 1 µM |  |  |  | 
13 | Cc1ccc2nc(-c3ccc4nc(-c5ccc(NC(=O)c6ccc(Cl)cc6)cc5)sc4c3)sc2c1S(=O)(=O)O [Compound 10, 2′-(4-(4-chlorobenzamido)phenyl)-6-methyl-[2,6′-bibenzo[d]thiazole]-7-sulfonic acid] | 84 ± 6% |  | 80% |  | 84 ± 6% |  |  | 46 ± 52 µM | 46 ± 52 µM | 2.3 ± 0.5 µM
14 | Cc1ccc(C(=O)Nc2ccc(-c3nc4ccc(-c5nc6ccc(C)c(S(=O)(=O)O)c6s5)cc4s3)cc2)cc1 [Compound 11, 6-methyl-2′-(4-(4-methylbenzamido)phenyl)-[2,6′-bibenzo[d]thiazole]-7-sulfonic acid] | 87 ± 4% | 2.5 ± 0.5 µM | 96% | 5 ± 2 µM | 87 ± 4% | 5 ± 2 µM |  |  |  | 
15 | Cc1ccc2nc(-c3ccc4nc(-c5ccc(NC(=O)c6ccc(C(F)(F)F)cc6)cc5)sc4c3)sc2c1S(=O)(=O)O [Compound 12, 6-methyl-2′-(4-(4-(trifluoromethyl)benzamido)phenyl)-[2,6′-bibenzo[d]thiazole]-7-sulfonic acid] | 90 ± 4% | 2.5 ± 1 µM | 80% | 4 ± 2 µM | 90 ± 4% | 3 µM | 2 ± 1 µM |  |  | 
16 | Cc1ccc2nc(-c3ccc4nc(-c5ccc(NC(=O)c6ccc(C(C)(C)C)cc6)cc5)sc4c3)sc2c1S(=O)(=O)O [Compound 13, 2′-(4-(4-(tert-butyl)benzamido)phenyl)-6-methyl-[2,6′-bibenzo[d]thiazole]-7-sulfonic acid] | 87 ± 4% | 5 ± 0.7 µM | 80% | 32 ± 7 µM | 87 ± 4% | 32 ± 7 µM | 5 ± 0.7 µM |  |  | 
17 | Cc1ccc2nc(-c3ccc4nc(-c5ccc(NC(=O)c6ccc(N(C)C)cc6)cc5)sc4c3)sc2c1S(=O)(=O)O [Compound 14, 2′-(4-(4-(dimethylamino)benzamido)phenyl)-6-methyl-[2,6′-bibenzo[d]thiazole]-7-sulfonic acid] | 94 ± 5% | 6.4 ± 1.2 µM | 98% | 4 ± 1 µM | 94 ± 5% | 4 ± 1 µM |  |  |  | 
18 | Cc1ccc2nc(-c3ccc4nc(-c5ccc(N)cc5)sc4c3)sc2c1S(=O)(=O)O [Compound P2a, 2′-(4-aminophenyl)-6-methyl-[2,6′-bibenzo[d]thiazole]-7-sulfonic acid] |  |  |  |  |  | 2 µM | 58 ± 51 µM |  |  | 
19 | Cc1ccc2nc(-c3ccc4nc(-c5ccc6nc(-c7ccc8nc(-c9ccc(N)cc9)sc8c7)sc6c5)sc4c3)sc2c1S(=O)(=O)O [Compound P4, 2′″-(4-aminophenyl)-6-methyl-[2,6′:2″,6′″-quaterbenzo[d]thiazole]-7-sulfonic acid] |  |  |  |  |  |  | 1 ± 0.3 µM |  |  | 
